Results on 1 molecule are retold here after patent US11524021B2, “Use of ginsenoside M1 for manufacturing medicament for treating oral cancer” (priority 2018, dated 2022).

For assay [1], the system named is human oral cancer OECM-1 cells. The assay is described as follows: Viability of human oral cancer OECM-1 cells, Trypan blue exclusion. Format: cell-based. To be noted: 5˜20 μg/ml, 24 h. The method, then: Human oral cancer cell line SAS cells (FIG. 1A) or OECM-1 cells (FIG. 1B) were incubated for 24 h with ginsenoside M1 (5˜20 μg/ml), ginsenoside Rh2 (5˜20 μg/ml) or vehicle (0.1% DMSO). The live cell numbers were counted by Trypan blue exclusion method. The data were expressed as mean±SD; n=3. *, ** and *** indicate a significant difference at the level of p<0.05, p<0.01 and p<0.001, respectively, compared to vehicle-control cells. (One-way ANOVA with Dunnett's multiple comparisons test).
Plate 5×10^5 human oral cancer cells SAS per 6-cm dish in 2 ml of culture medium and were grown overnight at 37° C. in a 5% CO2 incubator. The cells were incubated for 24 h with ginsenoside M1 (5˜20 μg/ml), ginsenoside Rh2 (5˜20 μg/ml) or vehicle. Each group contains a final DMSO concentration of 0.1%. Thereafter, the cell numbers were counted by Trypan blue exclusion method. […] The data were expressed as mean±SD; n=3. *, ** and *** indicate a significant difference at the level of p<0.05, p<0.01 and p<0.001, respectively, compared to vehicle-control cells. (One-way ANOVA with Dunnett's multiple comparisons test).

The subject of assay [2] is human oral cancer SAS cells. The assay is described as follows: Caspase-9 and caspase-3 activation, degradation of pro-caspases by Western blotting. The conditions noted are these: 10˜20 μg/ml, 24 h. Format: cell-based.
Assay [3] relates to human oral cancer SAS cells. The assay is described as follows: Migration of SAS cells, wound healing assay. The format is cell-based. To be noted: 24 h. The method, then:
FIGS. 5A-5B show ginsenoside M1 reduced the migration ability of human oral cancer cells. Human oral cancer cell line SAS cells (FIG. 5A) or OECM-1 cells (FIG. 5B) were cultured in 6-cm dish until the cells reached 100% confluence forming a monolayer. A clear zone was created by scratching using a sterile 200-μl pipette tip. The cells were incubated for 24 h (SAS cells) or 18 h (OECM-1 cells) with ginsenoside M1 (5˜10 μg/ml) or (0.1% DMSO). The migration distance was measured and compared to the vehicle-control cells. The data were expressed as mean±SD; n=3. *** indicates a significant difference at the level of p<0.001, compared to vehicle-control cells. (One-way ANOVA with Dunnett's multiple comparisons test).
The cell migration ability was measured by wound healing assay. Plate 5×10^6 human oral cancer SAS cells or OECM-1 cells per 6-cm dish in 2 ml of culture medium and were grown overnight at 37° C. in a 5% CO2 incubator until the cells reached 100% confluence forming a monolayer. We used a sterile 200-μl pipette tip to create a scratched clear zone on the culture dish, and the wounds photographed by a phase contrast microscope as the baseline. […] The data were expressed as mean±SD; n=3. *** indicates a significant difference at the level of p<0.001, compared to vehicle-control cells. […]

In assay [4] the test system is human oral cancer cells SAS xenografts. Briefly: Tumor growth in human oral cancer SAS xenograft mice. The format is in vivo, BALB/c nude (nu/nu) mice. The conditions noted are these: 5 successive days. The method, then: FIGS. 6A-6C show oral administration of ginsenoside M1 reduced human oral cancer growth in mice. Human oral cancer cell line SAS cells Xenografts mice with tumor size around 40˜60 mm^3 were given a daily oral administration of either ginsenoside M1 (30-90 mg/kg) or vehicle for 5 successive days. (FIG. 6A) The tumor volume was determined by measurement of the length (L) and width (W) of the tumor and calculated as tumor volume (mm3)=(L×W^2)/2. (FIG. 6B) The tumor weight was measured after the mice were scarified. (FIG. 6C) The body weight of mice was recorded. The data were expressed as mean±SD; n=6. ** and *** indicate a significant difference at the level of p<0.01 and p<0.001, respectively, compared to vehicle-control mice. (One-way ANOVA with Dunnett's multiple comparisons test).
FIGS. 7A-7C show subcutaneous (SC) injection of ginsenoside M1 reduced human oral cancer growth in mice. Human oral cancer cell line SAS cells Xenografts mice with tumor size around 40˜60 mm^3 were given a daily SC injection of either ginsenoside M1 (20 mg/kg) or vehicle for 5 successive days. (FIG. 7A) The tumor volume was determined by measurement of the length (L) and width (W) of the tumor and calculated as tumor volume (mm3)=(L×W^2)/2. (FIG. 7B) The tumor weight was measured after the mice were scarified. (FIG. 7C) The body weight of mice was recorded. The data were expressed as mean±SD; n=6. ** indicates a significant difference at the level of p<0.01, compared to vehicle-control mice. (One-way ANOVA with Dunnett's multiple comparisons test).
To evaluate the anti-cancer activity of ginsenoside M1 in vivo, human oral cancer xenografts were used. Six-week-old male congenital athymic BALB/c nude (nu/nu) mice were purchased from BioLASCO Taiwan Co., Ltd (Ilan, Taiwan), and housed in a room under controlled temperature (23±3° C.) and relative humidity (50±5%). Animal experiments were performed with the approval of the Institutional Animal Care and Use Committee of the National Ilan University (approval number: No. 106-13) according to the NIH Guide for the Care and Use of Laboratory Animals. Xenografts mice were established by subcutaneous (SC) injection of 2×10^6 human oral cancer cells SAS (in 75 μl PBS+75 μl Matrigel) on the backs of the nude mice. After the tumor has reached about 40˜60 mm^3 in size, the mice were randomized into six groups (six mice each): (1) oral vehicle control; (2) oral 30 mg/kg ginsenoside M1; (3) oral 60 mg/kg ginsenoside M1; (4) oral 90 mg/kg ginsenoside M1; (5) SC vehicle control; (6) SC 20 mg/kg ginsenoside M1. The mice were given a daily oral administration or SC injection of either vehicle or ginsenoside M1 for 5 successive days. The mice were scarified at 24 h after received the last dose of ginsenoside M1 or vehicle. The tumor volume (TV) was determined by measurement of the length (L) and width (W) of the tumor. The TV on day n (TVn) was calculated as TV (mm3)=(L×W^2)/2. The relative tumor volume on day n (RTVn) versus day 0 was expressed according to the following formula: RTVn=TVn/TV0. […] The data were expressed as mean±SD; n=6. ** and *** indicate a significant difference at the level of p<0.01 and p<0.001, respectively, compared to vehicle-control mice. (One-way ANOVA with Dunnett's multiple comparisons test).
In general terms: In xenograft studies the graft and the host belong to different species.

As for `CC(C)=CCC[C@](C)(O[C@@H]1OC(CO)[C@@H](O)[C@@H](O)C1O)[C@H]1CC[C@]2(C)C1[C@H](O)CC1[C@@]3(C)CC[C@H](O)C(C)(C)C3CC[C@]12C` (stereo partly drawn) [ginsenoside M1, 20-O-β-D-glucopyranosyl-20(S)-protopanaxadiol], the “cell numbers of human oral cancer OECM-1 cells” value in assay [1] is on record as “dose-dependently inhibited”. Moreover, the “precursor of caspase-3 (pro-caspase-3) level” value in assay [2] is “decrease of the precursors of caspase-3 and caspase-9 in a dose-dependent manner”. For the same molecule, in assay [2], the “precursor of caspase-9 (pro-caspase-9) level” value is “decrease of the precursors of caspase-3 and caspase-9 in a dose-dependent manner”. The “migration ability of SAS cells” value in assay [3] (5 μg/ml) and in assay [3] (10 μg/ml) was “significantly inhibited” each time. For the same molecule, the “tumor size compared to vehicle control group” value in assay [4] (SC injection 20 mg/kg daily) is on record as “significantly reduced”; in assay [4] (oral 30 mg/kg daily) it was “did not significant reduce”; in assay [4] (oral 60 mg/kg daily) it was “did not significant reduce”; in assay [4] (oral 90 mg/kg daily), “significantly reduced”. The “tumor weight compared to vehicle control group” value in assay [4] (SC injection 20 mg/kg daily) was “significantly reduced”; in assay [4] (oral 30 mg/kg daily), “did not significant reduce”; in assay [4] (oral 60 mg/kg daily), “did not significant reduce”.
